# Counter-ions that a name gives are not always drawn.
# Biological target: T1, Androgen Receptor (Homo sapiens, UniProt P10275, T878A)
# T1 construct: the AR gene was modified, using CRISPR/Cas9 editing, so the expressed AR protein included an 11 amino acid HiBiT tag; endogenous in cells; host or cells: clonal LnCaP-derived line, AR gene edited by CRISPR/Cas9
# Assay: Androgen Receptor Degradation Assay (Nano-Glo HiBiT)
# Assay type: cell-based
# Conditions: LNCaP, 18 h, HiBiT-tagged AR in human LnCaP cells, read-out: mean asymptote max
# In short: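 LnCaP cells with CRISPR-knocked-in N-terminal HiBiT-tagged AR (10,000/well) treated 18 h at 37 °C with PROTACs over 11 threefold concentrations; lytic HiBiT luminescence normalised to DMSO (0%) and cell-free (100%) controls. Relative DC50 = 4-parameter fit inflection; absolute DC50 = 50% degradation interpolation; Dmax = maximum observed degradation.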
# T1 sequence (P10275 whole entry T878A): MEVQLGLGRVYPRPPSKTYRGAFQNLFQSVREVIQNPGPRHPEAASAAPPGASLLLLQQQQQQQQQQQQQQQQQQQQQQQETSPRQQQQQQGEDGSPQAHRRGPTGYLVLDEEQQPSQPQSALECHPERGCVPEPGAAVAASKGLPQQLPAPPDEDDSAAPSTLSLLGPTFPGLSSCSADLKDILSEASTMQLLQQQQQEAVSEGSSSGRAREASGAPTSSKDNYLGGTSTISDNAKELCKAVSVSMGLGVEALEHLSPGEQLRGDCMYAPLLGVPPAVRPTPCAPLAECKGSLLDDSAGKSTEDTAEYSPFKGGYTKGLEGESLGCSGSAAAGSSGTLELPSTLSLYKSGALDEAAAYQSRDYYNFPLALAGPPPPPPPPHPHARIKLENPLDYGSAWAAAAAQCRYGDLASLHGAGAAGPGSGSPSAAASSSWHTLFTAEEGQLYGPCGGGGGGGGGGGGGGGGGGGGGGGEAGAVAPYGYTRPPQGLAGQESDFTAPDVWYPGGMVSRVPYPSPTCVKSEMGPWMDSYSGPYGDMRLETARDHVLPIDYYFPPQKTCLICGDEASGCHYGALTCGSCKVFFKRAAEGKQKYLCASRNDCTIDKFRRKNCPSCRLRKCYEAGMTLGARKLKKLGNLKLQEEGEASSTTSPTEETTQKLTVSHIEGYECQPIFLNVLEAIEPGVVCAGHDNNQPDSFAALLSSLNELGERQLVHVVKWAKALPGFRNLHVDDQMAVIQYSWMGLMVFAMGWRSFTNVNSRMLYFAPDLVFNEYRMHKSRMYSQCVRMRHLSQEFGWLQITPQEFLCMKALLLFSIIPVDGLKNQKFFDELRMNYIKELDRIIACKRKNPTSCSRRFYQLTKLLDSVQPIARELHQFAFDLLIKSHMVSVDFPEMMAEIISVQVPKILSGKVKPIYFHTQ
# T1 sequence (Q96SW2 whole entry partner): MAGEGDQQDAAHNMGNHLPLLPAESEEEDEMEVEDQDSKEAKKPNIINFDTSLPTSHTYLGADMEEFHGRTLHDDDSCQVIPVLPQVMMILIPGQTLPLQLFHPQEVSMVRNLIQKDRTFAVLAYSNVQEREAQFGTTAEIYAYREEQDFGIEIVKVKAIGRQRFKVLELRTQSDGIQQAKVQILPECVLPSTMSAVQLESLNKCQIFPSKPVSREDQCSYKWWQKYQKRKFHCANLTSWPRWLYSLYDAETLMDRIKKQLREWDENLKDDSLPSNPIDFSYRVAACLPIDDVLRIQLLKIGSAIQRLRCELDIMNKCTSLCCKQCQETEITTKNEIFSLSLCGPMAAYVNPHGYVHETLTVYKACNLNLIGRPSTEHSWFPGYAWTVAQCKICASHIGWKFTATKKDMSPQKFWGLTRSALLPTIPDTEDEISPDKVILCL
# T1 sequence (Q16531 whole entry partner): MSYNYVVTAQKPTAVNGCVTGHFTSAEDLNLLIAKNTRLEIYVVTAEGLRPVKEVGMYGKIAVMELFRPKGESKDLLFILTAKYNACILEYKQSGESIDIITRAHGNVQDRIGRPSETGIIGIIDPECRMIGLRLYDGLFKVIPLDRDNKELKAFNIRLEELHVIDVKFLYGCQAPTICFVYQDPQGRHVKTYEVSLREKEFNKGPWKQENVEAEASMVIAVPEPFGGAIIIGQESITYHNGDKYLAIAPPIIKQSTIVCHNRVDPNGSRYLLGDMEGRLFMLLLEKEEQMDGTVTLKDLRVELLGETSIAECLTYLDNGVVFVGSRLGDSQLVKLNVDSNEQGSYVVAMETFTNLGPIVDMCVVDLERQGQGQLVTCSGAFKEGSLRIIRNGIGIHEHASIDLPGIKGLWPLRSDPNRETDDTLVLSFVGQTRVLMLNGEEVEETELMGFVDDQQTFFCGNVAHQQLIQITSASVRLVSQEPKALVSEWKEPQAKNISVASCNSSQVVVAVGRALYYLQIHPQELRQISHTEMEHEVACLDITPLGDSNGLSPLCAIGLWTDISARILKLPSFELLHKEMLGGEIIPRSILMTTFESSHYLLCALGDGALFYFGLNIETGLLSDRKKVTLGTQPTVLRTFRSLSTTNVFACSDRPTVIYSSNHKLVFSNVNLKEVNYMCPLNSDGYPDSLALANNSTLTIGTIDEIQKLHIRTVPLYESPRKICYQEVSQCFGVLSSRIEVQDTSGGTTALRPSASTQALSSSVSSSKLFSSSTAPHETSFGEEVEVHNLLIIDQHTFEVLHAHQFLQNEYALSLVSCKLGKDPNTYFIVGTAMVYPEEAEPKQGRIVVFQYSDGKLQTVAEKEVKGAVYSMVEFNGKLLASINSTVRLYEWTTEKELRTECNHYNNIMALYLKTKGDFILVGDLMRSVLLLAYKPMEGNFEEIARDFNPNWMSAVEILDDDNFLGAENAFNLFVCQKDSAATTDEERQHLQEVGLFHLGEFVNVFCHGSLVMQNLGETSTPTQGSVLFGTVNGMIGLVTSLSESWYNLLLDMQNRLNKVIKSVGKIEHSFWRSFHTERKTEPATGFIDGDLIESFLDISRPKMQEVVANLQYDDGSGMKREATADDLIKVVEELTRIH
row,Structure (SMILES),Dmax [%]
1,"CC(C)n1ccc2c(N3CCC(=O)NC3=O)cc(C(=O)N3CCN(CC4CCN(c5ccc(C(=O)N[C@H]6C(C)(C)[C@H](Oc7ccc(C#N)c(Cl)c7)C6(C)C)nn5)CC4)CC3)cc21 [EAR78, N-((1r,3r)-3-(3-Chloro-4-cyanophenoxy)-2,2,4,4-tetramethylcyclobutyl)-6-(4-((4-(4-(2,4-dioxotetrahydropyrimidin-1(2H)-yl)-1-isopropyl-1H-indole-6-carbonyl)piperazin-1-yl)methyl)piperidin-1-yl)pyridazine-3-carboxamide]",≥ 50
2,"CC(C)n1ccc2c(N3CCC(=O)NC3=O)cc(C(=O)N3CCCC34CCN(CCCCCCc3ccc(C(=O)N[C@H]5CC[C@H](Oc6ccc(C#N)c(Cl)c6)CC5)cc3)CC4)cc21 [EAR86, N-((1r,4r)-4-(3-Chloro-4-cyanophenoxy)cyclohexyl)-4-(6-(1-(4-(2,4-dioxotetrahydropyrimidin-1(2H)-yl)-1-isopropyl-1H-indole-6-carbonyl)-1,8-diazaspiro[4.5]decan-8-yl)hexyl)benzamide]",≥ 50
3,"CC(C)n1ccc2c(N3CCC(=O)NC3=O)cc(C(=O)N(C)CC3CCN(CCCOc4ccc(C(=O)N[C@H]5CC[C@H](Oc6ccc(C#N)c(Cl)c6)CC5)nc4)CC3)cc21 [EAR61, N-((1-(3-((6-(((1r,4r)-4-(3-Chloro-4-cyanophenoxy)cyclohexyl)carbamoyl)pyridin-3-yl)oxy)propyl)piperidin-4-yl)methyl)-4-(2,4-dioxotetrahydropyrimidin-1(2H)-yl)-1-isopropyl-N-methyl-1H-indole-6-carboxamide]",≥ 50
4,"CC1(C)C(=O)N(c2ccc(C#N)c(C(F)(F)F)c2)C(=S)N1c1ccc(N2CCC(CCN3CCC(n4ccc5c(N6CCC(=O)NC6=O)cncc54)CC3)CC2)cc1 [EAR100, 4-(3-(4-(4-(2-(4-(4-(2,4-Dioxotetrahydropyrimidin-1(2H)-yl)-1H-pyrrolo[2,3-c]pyridin-1-yl)piperidin-1-yl)ethyl)piperidin-1-yl)phenyl)-4,4-dimethyl-5-oxo-2-thioxoimidazolidin-1-yl)-2-(trifluoromethyl)benzonitrile formate]",≥ 50
5,"C[C@@H]1CN(c2ccc(C#N)c(Cl)c2)[C@@H](C)CN1C(=O)c1ccc(OCCCCCN2CCC(n3ncc4c(N5CCC(=O)NC5=O)cncc43)CC2)nc1 [EAR164, 2-Chloro-4-((2S,5R)-4-(6-((5-(4-(4-(2,4-dioxotetrahydropyrimidin-1(2H)-yl)-1H-pyrazolo[3,4-c]pyridin-1-yl)piperidin-1-yl)pentyl)oxy)nicotinoyl)-2,5-dimethylpiperazin-1-yl)benzonitrile]",≥ 50
6,"N#Cc1ccc(O[C@H]2CC[C@H](NC(=O)c3ccc(N4CC(CN5CCC(n6ncc7c(N8CCC(=O)NC8=O)cccc76)CC5)C4)nn3)CC2)cc1Cl [EAR154, N-((1r,4r)-4-(3-Chloro-4-cyanophenoxy)cyclohexyl)-6-(3-((4-(4-(2,4-dioxotetrahydropyrimidin-1(2H)-yl)-1H-indazol-1-yl)piperidin-1-yl)methyl)azetidin-1-yl)pyridazine-3-carboxamide, formic acid salt]",≥ 50
7,"CC1(C)C(=O)N(c2ccc(C#N)c(C(F)(F)F)c2)C(=S)N1c1ccc(OCCCN2CCC(n3ccc4c(N5CCC(=O)NC5=O)cncc43)CC2)cc1 [EAR104, 4-(3-(4-(3-(4-(4-(2,4-Dioxotetrahydropyrimidin-1(2H)-yl)-1H-pyrrolo[2,3-c]pyridin-1-yl)piperidin-1-yl)propoxy)phenyl)-4,4-dimethyl-5-oxo-2-thioxoimidazolidin-1-yl)-2-(trifluoromethyl)benzonitrile]",≥ 50
8,"C[C@@H]1CN(c2ccc(C#N)c(Cl)c2)[C@@H](C)CN1C(=O)Nc1ccc(N2CCC(CCN3CCC(n4ccc5c(N6CCC(=O)NC6=O)cccc54)CC3)CC2)nc1 (racemic) [EAR115, rac-(trans)-4-(3-Chloro-4-cyanophenyl)-N-(6-(4-(2-(4-(4-(2,4-dioxotetrahydropyrimidin-1(2H)-yl)-1H-indol-1-yl)piperidin-1-yl)ethyl)piperidin-1-yl)pyridin-3-yl)-2,5-dimethylpiperazine-1-carboxamide]",≥ 50

# Next, values leading:
row,Dmax [%],Structure (SMILES)
1,≥ 50,"N#Cc1ccc(O[C@H]2CC[C@H](NC(=O)c3ccc(N4CCC(CN5CC[C@H](n6ccc7c(N8CCC(=O)NC8=O)cccc76)[C@H](F)C5)CC4)nn3)CC2)cc1Cl [EAR156, N-((1r,4r)-4-(3-Chloro-4-cyanophenoxy)cyclohexyl)-6-(4-(((3R,4S)-4-(4-(2,4-dioxotetrahydropyrimidin-1(2H)-yl)-1H-indol-1-yl)-3-fluoropiperidin-1-yl)methyl)piperidin-1-yl)pyridazine-3-carboxamide, hydrochloride]"
2,≥ 50,"N#Cc1ccc(O[C@H]2CC[C@H](NC(=O)c3ccc(N4CCC5(CC4)CC(N4CCC(n6ccc7c(N8CCC(=O)NC8=O)cccc76)CC4)C5)nn3)CC2)cc1Cl [EAR193, N-((1r,4r)-4-(3-Chloro-4-cyanophenoxy)cyclohexyl)-6-(2-(4-(4-(2,4-dioxotetrahydropyrimidin-1(2H)-yl)-1H-indol-1-yl)piperidin-1-yl)-7-azaspiro[3.5]nonan-7-yl)pyridazine-3-carboxamide]"
3,≥ 50,"N#Cc1ccc(O[C@H]2CC[C@H](NC(=O)c3ccc(N4CCC(CN5CCC(n6ccc7c(N8CCC(=O)NC8=O)ccnc76)CC5)CC4)nn3)CC2)cc1Cl [EAR149, N-((1r,4r)-4-(3-Chloro-4-cyanophenoxy)cyclohexyl)-6-(4-((4-(4-(2,4-dioxotetrahydropyrimidin-1(2H)-yl)-1H-pyrrolo[2,3-b]pyridin-1-yl)piperidin-1-yl)methyl)piperidin-1-yl)pyridazine-3-carboxamide]"
4,≥ 50,"N#Cc1ccc(O[C@H]2CC[C@H](NC(=O)c3cnc(N4CCC(CN5CCC(n6ccc7c(N8CCC(=O)NC8=O)nccc76)CC5)CC4)cn3)CC2)cc1Cl [EAR182, N-((1r,4r)-4-(3-Chloro-4-cyanophenoxy)cyclohexyl)-5-(4-((4-(4-(2,4-dioxotetrahydropyrimidin-1(2H)-yl)-1H-pyrrolo[3,2-c]pyridin-1-yl)piperidin-1-yl)methyl)piperidin-1-yl)pyrazine-2-carboxamide]"
5,≥ 50,"N#Cc1ccc(O[C@H]2CC[C@H](NC(=O)c3ccc(N4CCC(CN5CCC(n6ccc7c(N8CCC(=O)NC8=O)ccnc76)CC5)CC4)nn3)CC2)cc1C(F)(F)F [EAR212, N-((1r,4r)-4-(4-Cyano-3-(trifluoromethyl)phenoxy)cyclohexyl)-6-(4-((4-(4-(2,4-dioxotetrahydropyrimidin-1(2H)-yl)-1H-pyrrolo[2,3-b]pyridin-1-yl)piperidin-1-yl)methyl)piperidin-1-yl)pyridazine-3-carboxamide]"
6,≥ 50,"N#Cc1ccc(O[C@H]2CC[C@H](NC(=O)c3ccc(N4CCN(C[C@H]5CC[C@H](n6ccc7c(N8CCC(=O)NC8=O)cccc76)CC5)CC4)nn3)CC2)cc1Cl [AR215, N-((1r,4r)-4-(3-Chloro-4-cyanophenoxy)cyclohexyl)-6-(4-(((1r,4r)-4-(4-(2,4-dioxotetrahydropyrimidin-1(2H)-yl)-1H-indol-1-yl)cyclohexyl)methyl)piperazin-1-yl)pyridazine-3-carboxamide hydrochloride]"
7,≥ 50,"N#Cc1ccc(O[C@H]2CC[C@H](NC(=O)c3ccc(N4CCC(CN5CCC(n6ccc7c(N8CCC(=O)NC8=O)cncc76)CC5)CC4)nc3)CC2)cc1Cl [EAR50, N-((1r,4r)-4-(3-Chloro-4-cyanophenoxy)cyclohexyl)-6-(4-((4-(4-(2,4-dioxotetrahydropyrimidin-1(2H)-yl)-1H-pyrrolo[2,3-c]pyridin-1-yl)piperidin-1-yl)methyl)piperidin-1-yl)nicotinamide hydrochloride]"
8,≥ 50,"N#Cc1ccc(O[C@H]2CC[C@H](NC(=O)c3ccc(N4CCC(CN5CCC(n6ccc7c(-n8ccc(=O)[nH]c8=O)cccc76)CC5)CC4)nn3)CC2)cc1Cl [EAR141, N-((1r,4r)-4-(3-Chloro-4-cyanophenoxy)cyclohexyl)-6-(4-((4-(4-(2,4-dioxo-3,4-dihydropyrimidin-1(2H)-yl)-1H-indol-1-yl)piperidin-1-yl)methyl)piperidin-1-yl)pyridazine-3-carboxamide, hydrochloride]"
9,≥ 50,"N#Cc1ccc(O[C@H]2CC[C@H](NC(=O)c3ccc(N4CCC(CN5CC6(CC(n7ccc8c(N9CCC(=O)NC9=O)cccc87)C6)C5)CC4)nn3)CC2)cc1Cl [EAR173, N-((1r,4r)-4-(3-Chloro-4-cyanophenoxy)cyclohexyl)-6-(4-((6-(4-(2,4-dioxotetrahydropyrimidin-1(2H)-yl)-1H-indol-1-yl)-2-azaspiro[3.3]heptan-2-yl)methyl)piperidin-1-yl)pyridazine-3-carboxamide]"
10,≥ 50,"N#Cc1ccc(O[C@H]2CC[C@H](NC(=O)c3ccc(N4CC5(CC(CN6CCC(n7ncc8c(N9CCC(=O)NC9=O)cccc87)CC6)C5)C4)nn3)CC2)cc1Cl [EAR224, N-((1r,4r)-4-(3-chloro-4-cyanophenoxy)cyclohexyl)-6-(6-((4-(4-(2,4-dioxotetrahydropyrimidin-1(2H)-yl)-1H-indazol-1-yl)piperidin-1-yl)methyl)-2-azaspiro[3.3]heptan-2-yl)pyridazine-3-carboxamide]"
11,≥ 50,"CC1(C)[C@H](NC(=O)c2cnc(N3CCC(CN4CCC(n5ccc6c(N7CCC(=O)NC7=O)cccc65)CC4)CC3)cn2)C(C)(C)[C@H]1Oc1ccc(C#N)c(Cl)c1 [AR8, N-((1r,3r)-3-(3-Chloro-4-cyanophenoxy)-2,2,4,4-tetramethylcyclobutyl)-5-(4-((4-(4-(2,4-dioxotetrahydropyrimidin-1(2H)-yl)-1H-indol-1-yl)piperidin-1-yl)methyl)piperidin-1-yl)pyrazine-2-carboxamide]"
